This note sets out measurements from patent US9994594B2, “Inhibitors of arginase and their therapeutic applications” (MARS, INCORPORATED, priority 2010, dated 2018).

Structures can show the parent of a compound that is named as a salt.

The target in one experiment is T1, human arginase I (ARG I) (Homo sapiens, UniProt P05089).
T1 sequence (P05089 1-322): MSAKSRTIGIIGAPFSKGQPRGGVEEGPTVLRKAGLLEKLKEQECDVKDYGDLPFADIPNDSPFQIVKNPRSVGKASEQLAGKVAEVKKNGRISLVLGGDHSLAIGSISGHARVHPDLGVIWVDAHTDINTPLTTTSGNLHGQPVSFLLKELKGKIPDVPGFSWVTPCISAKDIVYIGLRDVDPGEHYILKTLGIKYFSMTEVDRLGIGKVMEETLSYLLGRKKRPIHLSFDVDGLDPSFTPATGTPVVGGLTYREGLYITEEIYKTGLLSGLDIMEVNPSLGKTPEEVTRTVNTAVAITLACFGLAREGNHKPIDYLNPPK
Description: Inhibition of arginase I, spectrophotometric urea assay at 530 nm. In kind it is biochemical. To be noted: Formula I compounds, Table 2; read-out: Potency (ARG I). An outline of the steps: (§1)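 IC50 was derived by regression of OD530 normalized to uninhibited-enzyme controls against log concentration. Urea from 60-min, 37 °C turnover of L-arginine with manganese sulfate was detected after acid o-phthaldialdehyde/primaquine quench and 10 min colour development. Arginase I and II came from 100 ng/ml stocks in pH 7.4 phosphate with ovalbumin.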

A further experiment deals with T2, arginase II (ARG II) (Homo sapiens, UniProt P78540).
T2 sequence (P78540 23-354): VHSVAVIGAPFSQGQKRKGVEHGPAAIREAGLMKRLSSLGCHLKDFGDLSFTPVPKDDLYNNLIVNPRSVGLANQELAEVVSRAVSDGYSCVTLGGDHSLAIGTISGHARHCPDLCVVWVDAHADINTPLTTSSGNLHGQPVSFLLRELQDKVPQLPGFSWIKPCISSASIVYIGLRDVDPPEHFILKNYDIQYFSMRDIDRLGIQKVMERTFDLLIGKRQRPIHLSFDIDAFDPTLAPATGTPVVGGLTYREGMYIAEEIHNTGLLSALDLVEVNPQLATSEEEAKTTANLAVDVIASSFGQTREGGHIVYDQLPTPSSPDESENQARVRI
Kind of experiment: Inhibition of arginase II, spectrophotometric urea assay at 530 nm. The format is biochemical. To be noted: Formula I compounds, Table 2; read-out: Potency (ARG II). An outline of the steps: as §1

`COc1ccc(CC2(NCCC(N)(CCCCB(O)O)C(=O)O)CC2)cc1` (stereo not shown) [compound 61, 2-amino-6-borono-2-(2-(1-(4-methoxybenzyl)cyclopropylamino)ethyl)hexanoic acid]: the figures for the IC50 on human arginase I (ARG I) and at arginase II (ARG II) were 251 to 1000 nM and 1000 to 2000 nM, respectively.
The matching figures for `NC(CCCCB(O)O)(CCN1CCc2ccsc2C1)C(=O)O` (stereo not shown) [compound 62, 2-amino-6-borono-2-(2-(4,5-dihydrothieno[2,3-c]pyridin-6(7H)-yl)ethyl)hexanoic acid dihydrochloride]: 251 to 1000 nM and 1000 to 2000 nM.
In the case of `NC(CCCCB(O)O)(CCNCCCc1ccc(F)c(F)c1)C(=O)O` (stereo not shown) [compound 63, 2-amino-6-borono-2-(2-(3-(3,4-difluorophenyl)propylamino)ethyl)hexanoic acid dihydrochloride], the IC50 at human arginase I (ARG I) and at arginase II (ARG II) was 0.1 to 250 nM throughout.
For the compound `NC(CCCCB(O)O)(CCNCCCc1cc(C(F)(F)F)ccc1Cl)C(=O)O` (stereo not shown) [compound 64, 2-amino-6-borono-2-(2-(3-(2-chloro-5-(trifluoromethyl)phenyl)propylamino)ethyl)hexanoic acid dihydrochloride], the IC50 at human arginase I (ARG I) and at arginase II (ARG II) was 0.1 to 250 nM in each case.
For the compound `COc1cccc(CCCNCCC(N)(CCCCB(O)O)C(=O)O)c1` (stereo not shown) [compound 65, 2-amino-6-borono-2-(2-(3-(3-methoxyphenyl)propylamino)ethyl)hexanoic acid dihydrochloride], the IC50 at human arginase I (ARG I) and at arginase II (ARG II) was 0.1 to 250 nM throughout.
For the compound `NC(CCCCB(O)O)(CCNCCCc1ccc(Cl)cc1Cl)C(=O)O` (stereo not shown) [compound 66, 2-amino-6-borono-2-(2-(3-(2,4-dichlorophenyl)propylamino)ethyl)hexanoic acid dihydrochloride], the IC50 on human arginase I (ARG I) and at arginase II (ARG II) was 0.1 to 250 nM each time.
On to `CC(C)(C)NCCC(N)(CCCCB(O)O)C(=O)O` (stereo not shown) [compound 67, 2-amino-6-borono-2-(2-(tert-butylamino)ethyl)hexanoic acid dihydrochloride], for which the IC50 at human arginase I (ARG I) and on arginase II (ARG II) was 251 to 1000 nM in each case.
Take `NC(CCCCB(O)O)(CCNC1CC1)C(=O)O` (stereo not shown) [compound 68, 2-amino-6-borono-2-(2-(cyclopropylamino)ethyl)hexanoic acid dihydrochloride]: the IC50 at human arginase I (ARG I) and at arginase II (ARG II) was 251 to 1000 nM in each case.
Turning to `COc1ccc(CNCCC(N)(CCCCB(O)O)C(=O)O)cc1` (stereo not shown) [compound 69, 2-amino-6-borono-2-(2-(4-methoxybenzylamino)ethyl)hexanoic acid dihydrochloride], the IC50 on human arginase I (ARG I) and at arginase II (ARG II) was 0.1 to 250 nM in each case.
Consider `NC(CCCCB(O)O)(CCNCc1ccccc1)C(=O)O` (stereo not shown) [compound 70, 2-amino-2-(2-(benzylamino)ethyl)-6-boronohexanoic acid dihydrochloride], for which the values for the IC50 at human arginase I (ARG I) and on arginase II (ARG II) were 0.1 to 250 nM and 251 to 1000 nM, respectively.
The matching figures for `CN(C)CCN(C)CCC(N)(CCCCB(O)O)C(=O)O` (stereo not shown) [compound 71, 2-amino-6-borono-2-(2-((2-(dimethylamino)ethyl)(methyl)amino)ethyl)hexanoic acid trihydrochloride]: 2000 to 5000 nM and 2000 to 5000 nM.
For `NC(CCCCB(O)O)(CCNC1CCCC1)C(=O)O` (stereo not shown) [compound 72, 2-amino-6-borono-2-(2-(cyclopentylamino)ethyl)hexanoic acid dihydrochloride], in that order: 251 to 1000 nM and 251 to 1000 nM.
The matching figures for `NCCN(CCC(N)(CCCCB(O)O)C(=O)O)Cc1ccccc1` (stereo not shown) [compound 73, 2-amino-2-(2-((2-aminoethyl)(benzyl)amino)ethyl)-6-boronohexanoic acid trihydrochloride]: 0.1 to 250 nM and 251 to 1000 nM.
For `CC(C)Oc1ccc(CN(C)CCC(N)(CCCCB(O)O)C(=O)O)cc1` (stereo not shown) [compound 74, 2-amino-6-borono-2-(2-((4-isopropoxybenzyl)(methyl)amino)ethyl)hexanoic acid dihydrochloride], the IC50 is 2000 to 5000 nM at human arginase I (ARG I) and over 5000 nM at arginase II (ARG II).
For `NC(CCCCB(O)O)(CCN1CCC1)C(=O)O` (stereo not shown) [compound 75, 2-amino-2-(2-(azetidin-1-yl)ethyl)-6-boronohexanoic acid dihydrochloride], in that order: 251 to 1000 nM and 1000 to 2000 nM.
For the compound `NC(CCCCB(O)O)(CCN1CCN(c2ccccc2)CC1)C(=O)O` (stereo not shown) [compound 76, 2-amino-6-borono-2-(2-(4-phenylpiperazin-1-yl)ethyl)hexanoic acid dihydrochloride], the IC50 at human arginase I (ARG I) and at arginase II (ARG II) was over 5000 nM in each case.
For the compound `COCCN1CCN(CCC(N)(CCCCB(O)O)C(=O)O)CC1` (stereo not shown) [compound 77, 2-amino-6-borono-2-(2-(4-(2-methoxyethyl)piperazin-1-yl)ethyl)hexanoic acid trihydrochloride], the IC50 is 2000 to 5000 nM on human arginase I (ARG I) and over 5000 nM at arginase II (ARG II).
The matching figures for `CN(CCC(N)(CCCCB(O)O)C(=O)O)CC(O)c1ccccc1` (stereo not shown) [compound 78, 2-amino-6-borono-2-(2-((2-hydroxy-2-phenylethyl)(methyl)amino)ethyl)hexanoic acid dihydrochloride]: 2000 to 5000 nM and 2000 to 5000 nM.
The matching figures for `NC(CCCCB(O)O)(CN1CCCCC1)C(=O)O` (stereo not shown) [compound 79, 2-amino-6-borono-2-(piperidin-1-ylmethyl)hexanoic acid]: 2000 to 5000 nM and over 5000 nM.
For `CN1CCN(CC(N)(CCCCB(O)O)C(=O)O)CC1` (stereo not shown) [compound 80, 2-amino-6-borono-2-((4-methylpiperazin-1-yl)methyl) hexanoic acid trihydrochloride], in that order: 2000 to 5000 nM and over 5000 nM.
Take `CCCNCC(N)(CCCCB(O)O)C(=O)O` (stereo not shown) [compound 83, 2-amino-6-borono-2-((propylamino)methyl)hexanoic acid dihydrochloride]: the IC50 at human arginase I (ARG I) and at arginase II (ARG II) was 2000 to 5000 nM each time.
As to `NC(CCCCB(O)O)(CNCc1ccccc1)C(=O)O` (stereo not shown) [compound 84, 2-amino-2-((benzylamino)methyl)-6-boronohexanoic acid], the IC50 on human arginase I (ARG I) is 2000 to 5000 nM; on arginase II (ARG II), over 5000 nM.
For `C[C@@H](O)CNCC(N)(CCCCB(O)O)C(=O)O` (stereo partly drawn) [compound 85, 2-amino-6-borono-2-(((R)-2-hydroxypropylamino)methyl)hexanoic acid dihydrochloride], in that order: 2000 to 5000 nM and 2000 to 5000 nM.
For `CCCCNCC(N)(CCCCB(O)O)C(=O)O` (stereo not shown) [compound 86, 2-amino-6-borono-2-((butylamino)methyl)hexanoic acid dihydrochloride], the IC50 at human arginase I (ARG I) and at arginase II (ARG II) was 2000 to 5000 nM in each case.
Turning to `NC(CCCCB(O)O)(CNC1CCOCC1)C(=O)O` (stereo not shown) [compound 87, 2-amino-6-borono-2-((tetrahydro-2H-pyran-4-ylamino)methyl)hexanoic acid dihydrochloride], the IC50 on human arginase I (ARG I) and at arginase II (ARG II) was 1000 to 2000 nM throughout.
Regarding `CC(C)CC(CO)NCC(N)(CCCCB(O)O)C(=O)O` [compound 88, 2-amino-6-borono-2-(((S)-1-hydroxy-4-methylpentan-2-ylamino)methyl)hexanoic acid dihydrochloride], the IC50 at human arginase I (ARG I) is 2000 to 5000 nM; at arginase II (ARG II) it was 1000 to 2000 nM.
Turning to `C[C@H](NCC(N)(CCCCB(O)O)C(=O)O)c1ccccc1` (stereo partly drawn) [compound 90, 2-amino-6-borono-2-(((S)-1-phenylethylamino)methyl)hexanoic acid dihydrochloride], the IC50 at human arginase I (ARG I) and at arginase II (ARG II) was 2000 to 5000 nM throughout.
`C[C@H](CO)NCCC(N)(CCCCB(O)O)C(=O)O` (stereo partly shown) [compound 91]: the IC50 on human arginase I (ARG I) and at arginase II (ARG II) was 2000 to 5000 nM in each case.
Take `NC(CCCCB(O)O)(CCOc1ccc(Cl)cc1)C(=O)O` (stereo not shown) [compound 92, 2-amino-6-borono-2-(2-(4-chlorophenoxy)ethyl)hexanoic acid hydrochloride]: the IC50 on human arginase I (ARG I) and at arginase II (ARG II) was over 5000 nM in each case.
For the compound `COc1ccc(OCCC(N)(CCCCB(O)O)C(=O)O)cc1` (stereo not shown) [compound 93, 2-amino-6-borono-2-(2-(4-methoxyphenoxy)ethyl)hexanoic acid hydrochloride], the IC50 at human arginase I (ARG I) and on arginase II (ARG II) was over 5000 nM in each case.
Consider `NC(CCCCB(O)O)(CCOc1ccc(Cl)cc1Cl)C(=O)O` (stereo not shown) [compound 94, 2-Amino-6-borono-2-[2-(2,4-dichlorophenoxy)-ethyl]-hexanoic acid hydrochloride], for which the IC50 on human arginase I (ARG I) and at arginase II (ARG II) was over 5000 nM throughout.
`NC(CCCCB(O)O)(CCOc1cccc(C(F)(F)F)c1)C(=O)O` (stereo not shown) [compound 95, 2-Amino-6-borono-2-[2-(3-trifluoromethylphenoxy)-ethyl]-hexanoic acid hydrochloride]: the IC50 on human arginase I (ARG I) and at arginase II (ARG II) was 2000 to 5000 nM throughout.
